Source: patent US20070196902A1, “Method of detecting AZT resistance in HIV” (University of Pittsburgh, priority 2006, published 2007)
Where two headings read alike, the source gives them in different places.

Tests used:
Wild-type HIVLAI = test: Drug susceptibility assay in P4/R5 cells, recombinant virus; type: cell-based, HIV-1
Experimental: (§1) Drug susceptibility assays. NRTI susceptibility was determined in P4/R5 cells as described previously (Parikh, U. M., et al. 2005. Antimicrob. Agents Chemother. 49:1139-44). Briefly, threefold dilutions of inhibitor were added to P4/R5 cells in triplicate and cells were infected with an amount of virus that produced 100 relative units of light (RLU) in no drug, virus control wells. After 48 hours, the cells were lysed (Gal-Screen; Tropix/Applied Biosystems, Foster City, Calif.) and the RLU was measured using a ThermoLabSystems luminometer (Waltham, Mass.). The IC50 and fold-resistance were calculated as described above. IC50 values from at least three independent experiments were log10 transformed and compared for statistically significant differences using the two-sample Student's t test.
(§2) Construction of mutant recombinant HIV-1. Mutant recombinant plasmid clones of virus were generated by oligonucleotide site-directed mutagenesis as described previously (Shi, C., and J. W. Mellors. 1997. A recombinant retroviral system for rapid […] analysis of human immunodeficiency virus type 1 susceptibility to reverse transcriptase inhibitors. Antimicrob. Agents Chemother. 41:2781-5), using the p6HRT-MO plasmid. p6HRT-MO contains the entire RT and protease coding sequence as previously described (Le Grice, S. F., and F. Gruninger-Leitch. 1990. Rapid purification of homodimer and heterodimer HIV-1 reverse transcriptase by metal chelate affinity chromatography. Eur. J. Biochem. 187:307-14) and four silent restriction sites (Xma I, Mlu I, Xba I, and NgoM IV from the 5′ to 3′ end of RT at codons 14, 358, 490 and 554, respectively). After site-directed mutagenesis (QIAamp kit, QIAGEN, Valencia, Calif.), the mutated RT was ligated into pxxHIV-1LAI MO that contains the entire genome of HIV-1LAI and the same silent restriction sites as p6HRT-MO. Infectious virus was generated by electroporating the mutated xxHIV-1LAI MO plasmid into MT-2 cells as described above. All mutations in recombinant viruses were confirmed by full-length sequencing of the entire RT coding region.

[1] = system: HIVLAI RT D67N/K70R/A371V/Q509L; test: Drug susceptibility assay in P4/R5 cells, site-directed mutant; type: cell-based, HIV-1; details: for Fold-Resistance: D67N/K70R/A371V/Q509L compared to wild-type; for IC50: D67N/K70R/A371V/Q509L, mean ± SD
Experimental: as §1, §2

[2] = system: HIVLAI RT D67N/K70R/T215F/A371V/Q509L; test: as above; type: cell-based, HIV-1; details: for Fold-Resistance: D67N/K70R/T215F/A371V/Q509L compared to wild-type; for cross-resistance compared with viruses without A371V/Q509L: HIV-1 containing D67N/K70R/T215F/A371V/Q509L; for IC50: D67N/K70R/T215F/A371V/Q509L, mean ± SD
Experimental: as §1, §2

[3] = system: HIVLAI RT D67N/K70R/T215F; test: as above; type: cell-based, HIV-1; details: for Fold-Resistance: D67N/K70R/T215F compared to wild-type; for IC50: D67N/K70R/T215F, mean ± SD
Experimental: as §1, §2

HIVLAI RT D67N/K70R = test: as above; type: cell-based, HIV-1; details: for Fold-Resistance: D67N/K70R compared to wild-type; for IC50: D67N/K70R, mean ± SD
Experimental: as §1, §2

[4] = system: HIV-1 RT mutants with A371V and/or Q509L, alone or in combination with TAMs; test: Drug susceptibility of site-directed mutants, comparisons between mutants with and without A371V/Q509L; type: cell-based; details: D67N/K70R/A371V/Q509L and D67N/K70R/T215F/A371V/Q509L
[5] = system: HIV-1 RT mutations D549N and H539N; details: cited from earlier work
HIV-1 RT D549N = details: D549N mutation; cited from earlier work
HIV-1 RT H539N = details: H539N mutation; cited from earlier work
[6] = system: HIV-1 RT D549N with TAMs D67N, K70R, T215Y and K219Q; details: D549N present with TAMs D67N; cited from earlier work
[7] = Human immunodeficiency virus 1, P4/R5

SMILES | IC50 (Wild-type HIVLAI; [7]) | Fold-Resistance [1] | IC50 [1, 7] | Fold-Resistance [2] | cross-resistance compared with viruses without A371V/Q509L [2] | IC50 [2, 7] | Fold-Resistance [3] | IC50 [3, 7] | Fold-Resistance (HIVLAI RT D67N/K70R) | IC50 (HIVLAI RT D67N/K70R; [7]) | cross-resistance of viruses with A371V and Q509L in combination with TAMs compared with those with only TAMs [4] | effect of the mutations on susceptibility [5] | IC50 (Wild-type HIVLAI; Wild-type HIVLAI RT, mean ± SD, at least 3 independent experiments, read-out: IC50) | IC50 [1] | IC50 [2] | IC50 [3] | IC50 (HIVLAI RT D67N/K70R) | increase in resistance (reduced susceptibility) (HIV-1 RT D549N) | increase in resistance (reduced susceptibility) (HIV-1 RT H539N) | increase in resistance [6]
Nc1nc(NC2CC2)c2ncn([C@H]3C=C[C@@H](CO)C3)c2n1 [abacavir] | 6.4 ± 0.5 µM | 2.0 fold | 13 ± 2.5 µM | 3.0 fold | greater cross-resistance | 19 ± 4.5 µM | 2.4 fold | 15 ± 1.5 µM | 1.2 fold | 7.9 ± 0.4 µM | Statistically significant increases in cross-resistance |  |  |  |  |  |  |  |  | 
O=C1Nc2ccc(Cl)cc2[C@@](C#CC2CC2)(C(F)(F)F)O1 [efavirenz] |  |  |  |  |  |  |  |  |  |  |  | no effect |  |  |  |  |  |  |  | 
C[C@H](Cn1cnc2c(N)ncnc21)OCP(=O)(O)O [tenofovir] |  | 2.2 fold |  | 2.7 fold | greater cross-resistance |  | 1.5 fold |  | 1.5 fold |  | trend toward decreased susceptibility |  | 3.3 ± 0.9 µM | 7.3 ± 1.3 µM | 9 ± 3.5 µM | 4.9 ± 0.7 µM | 4.9 ± 1.5 µM |  |  | 
O=c1[nH]cnc2c1ncn2[C@H]1CC[C@@H](CO)O1 [didanosine] | 4.2 ± 0.9 µM | 1.2 fold | 4.9 ± 0.9 µM | 1.6 fold |  | 6.6 ± 0.4 µM | 1.6 fold | 6.8 ± 0.3 µM | 1.2 fold | 5 ± 0.9 µM |  | no effect |  |  |  |  |  |  |  | 
Nc1ccn([C@@H]2CS[C@H](CO)O2)c(=O)n1 [lamivudine] | 0.5 ± 0.1 µM | 5.2 fold | 2.7 ± 1.4 µM | 15 fold |  | 7.5 ± 1.8 µM | 7.0 fold | 3.8 ± 0.59 µM | 1.9 fold | 1 ± 0.3 µM |  |  |  |  |  |  |  |  |  | 
Cc1cn([C@H]2C=C[C@@H](CO)O2)c(=O)[nH]c1=O [stavudine] | 7.2 ± 0.6 µM | 1.3 fold | 9.6 ± 2.9 µM | 2.0 fold |  | 14 ± 4.4 µM | 2.4 fold | 17 ± 4.6 µM | 1.4 fold | 10 ± 3.1 µM |  |  |  |  |  |  |  | 2,4 fold | 10 fold | 12.5 fold
